Measurements as given in patent US20160235807A1, “AGONISTS OF GUANYLATE CYCLASE USEFUL FOR DOWNREGULATION OF PRO-INFLAMMATORY CYTOKINES” (SYNERGY PHARMACEUTICALS, INC., priority 2013, published 2016).
Entries after “also recorded” stand apart in the source; their conditions may differ. Bridge positions count the residues as written; N and C are the ends. Square brackets hold non-standard residues; d marks the D form. Peptide text beside a SMILES is read from it.

Tests used:
[1] = assay type: in vitro ADME
Description: Plecanatide and SP-333 were incubated in simulated intestinal fluid (SIF) for 6-24 h. Inactivated SIF was used as a control. Following the treatment, samples were analyzed by HPLC by cGMP production in T84 cells. […] The active metabolite, SP-338 was characterized by MS and MS/MS and identified to be formed via removal of carboxyl terminal leucine possibly due to cleavage by carboxypeptidases.

[2] = tested on: T84 cells; assay: MicroRNA microarray analysis of SP-333 treated T84 cells; assay type: cell-based, human; settings: T84, 1 μM, 5 h
Description: T84 cells were grown to confluence in 100 mm tissue culture dishes. Cells were treated with pre-determined concentration of SP-333 (1 μM) in the presence of phosphodiesterase inhibitor, zaprinast (500 μM; Sigma Aldrich) for 5 hours. Following treatment, cells were trypsinized and the sample was divided into 3 aliquots. One aliquot was used to determine total cGMP. Another was used for extracting total RNA. The last aliquot was used to extract and purify miRNAs using Norgen's Kit (Norgen BioteK). Briefly, cells were lysed using lysis buffer, passed through a column to remove large RNA, followed by capturing miRNA using microRNA enrichment column. Purified samples were stored at −20° C. MicroRNAs were profiled on a LC Sciences microarray chip and TaqMan Open Array Human miRNA panel.

[3] = Table 8: downregulated under NF-κB
[4] = Table 8: upregulated under NF-κB

## CC(C)C[C@@H]1NC(=O)[C@H](CCC(=O)O)NC(=O)[C@@H](NC(=O)[C@H](CCC(=O)O)NC(=O)[C@H](CC(=O)O)NC(=O)[C@H](N)CC(N)=O)CSSC[C@@H]2NC(=O)[C@H](C)NC(=O)[C@H](C(C)C)NC(=O)[C@H](CC(N)=O)NC(=O)[C@H](C(C)C)NC(=O)[C@H](CSSC[C@@H](C(=O)N[C@H](CC(C)C)C(=O)O)NC(=O)CNC(=O)[C@H]([C@@H](C)O)NC2=O)NC1=O [SP-333, dAsn^1-Asp^2-Glu^3-Cys^4-Glu^5-Leu^6-Cys^7-Val^8-Asn^9-Val^10-Ala^11-Cys^12-Thr^13-Gly^14-Cys^15-dLeu^16] (H-[dN]DECELCVNVACTGC[dL]-OH; disulfide 4-12, 7-15; N-terminus and C-terminus assumed)
[1]
  stability in simulated gastric and intestinal fluids: stable
[2]; Table 8: downregulated in CRC
  miR-133b level: increase
  miR-139-5p level: increase
[2]; Table 8: downregulated in CRC, p<0.01
  miR-133a level: increase
[2]; [3]
  miR-218 level: increase
  miR-223 level: increase
  mir-29b level: increase
[2]; Table 8: downregulated under NF-κB, p<0.01
  miR-16 level: upregulated; also recorded: increase
[2]; Table 8: downregulated under NF-κB, p<0.05
  miR-15a level: upregulated; also recorded: increase
[2]; Table 8: upregulated in CRC
  miR-92 level: decrease
[2]; Table 8: upregulated in IBD
  miR-26b level: decrease
  miR-28-5p level: decrease
  miR-98 level: decrease
  miR-99a level: decrease
  miR-203 level: decrease
  miR-362-3p level: decrease
  miR-532-3p level: decrease
[2]; [4]
  miR-10a level: decrease
  miR-27b level: decrease
  miR-30b level: decrease
  miR-301 level: decrease
[2]; Table 8: upregulated under NF-κB and cMyc
  miR-199-3p level: decrease
[2]; Table 8: upregulated under cMyc
  miR-224 level: decrease
[2]; p<0.001
  miR-125b level: upregulated
[2]; p<0.005
  let-7i level: upregulated
  miR-494 level: reduced
[2]; p<0.01
  miR-41-3p level (negative regulator of c-Src): significantly increased
  miR-200c level: reduced
[2]; p<0.05
  family of miR-29 level: upregulated
  miR-30c level: increased
  miR-92a level: reduced
